From ChEMBL document CHEMBL4699579, “A Peptidyl Inhibitor that Blocks Calcineurin-NFAT Interaction and Prevents Acute Lung Injury” (J Med Chem, 2020)
Active and inactive are the calls of the source. No cut-off for these calls is given here. Positions of bridges follow the written chain, without caps; N, C: chain ends. Non-standard residues stand in square brackets, D forms with d. Residues, ends and D or L forms follow the SMILES beside them. Chains are numbered I, II in the order given. *: point of attachment. 2Nal = N[C@@H](Cc1ccc2ccccc2c1)C(=O)O; Val(3-OH) = CC(C)(O)[C@H](N)C(=O)O; Tle = CC(C)(C)[C@H](N)C(=O)O; X1 = O=C(c1ccnc(Cl)c1Cl)*; AEEA = NCCOCCOCC(=O)O

Experiments:
[1] = tested on: HeLa; assay: Toxicity in human HeLa cells assessed as reduction in cell viability up to 25 uM incubated for 72 hrs by MTT assay; assay type: cell-based
[2] = tested on: Macrophage; assay: Inhibition of calcineurin-NFATc3 interaction in mouse lung macrophages assessed as reduction in LPS-induced IL6 production at 0.1 to 10 uM pre-incubated 4 hrs before LPS stimulation for 8 hrs by ELISA; assay type: tissue-based; settings: DISRUPTING AGENT, dose microM 0.1-10, time 12.0 hrs
[3] = species on record: Homo sapiens; assay: Inhibition of GST-tagged Calcineurin (unknown origin) assessed as reduction in phosphatase activity at 50 uM incubated for 30 mins using p-nitrophenyl phosphate substrate
[4] = Stability in simulated intestinal fluid at 5 uM incubated for 2 hrs by LC/MS/MS analysis
[5] = Drug uptake in human HCT-116 cells spheroids at 5 uM incubated for 4 to 24 hrs by MALDI-TOF-TOF mass spectrometry; assay type: ADME, cell-based; settings: hct-116, 5 µM, TDE = time-dependent effect, time 4-24 hrs
[6] = Stability in mouse liver microsomes assessed as compound degradation at 100 uM incubated up to 60 mins in presence of NADPH by LC-MS/MS analysis; assay type: ADME, Microsome; settings: 1 h, TDE = time-dependent effect
[7] = Stability in mouse liver microsomes assessed as compound degradation at 100 uM after 1 hr in presence of NADPH by LC-MS/MS analysis; assay type: ADME, Microsome; settings: read-out: Drug degradation
[8] = Plasma concentration in BALB/c mouse at 5 mg/kg, iv after 2 to 4 hrs by LC-MS/MS analysis; assay type: ADME, organism-based; settings: in vivo, time 2-4 hrs
[9] = Plasma concentration in BALB/c mouse at 5 mg/kg, iv after 8 hrs by LC-MS/MS analysis; assay type: ADME, organism-based
[10] = Drug concentration in BALB/c mouse spleen at 5 mg/kg, iv after 8 hrs by LC-MS/MS analysis; assay type: ADME, organism-based; settings: read-out: Drug uptake
[11] = Drug concentration in BALB/c mouse brain at 5 mg/kg, iv after 8 hrs by LC-MS/MS analysis; assay type: ADME, organism-based; settings: in vivo
[12] = Drug metabolism in BALB/c mouse liver at 5 mg/kg, iv after 8 hrs by LC-MS/MS analysis; assay type: ADME, organism-based; settings: in vivo
[13] = Drug metabolism in BALB/c mouse kidney at 5 mg/kg, iv after 8 hrs by LC-MS/MS analysis; assay type: ADME, organism-based; settings: in vivo
[14] = Drug distribution in BALB/c mouse plasma at 0.6 mg/kg, iv using compound labelled with cyanine-5 measured after 24 hrs by fluorescence based assay; assay type: ADME, organism-based; settings: in vivo
[15] = Drug distribution in BALB/c mouse muscle at 0.6 mg/kg, iv using compound labelled with cyanine-5 measured after 24 hrs by fluorescence based assay; assay type: ADME, organism-based, Muscle tissue; settings: in vivo
[16] = Drug distribution in BALB/c mouse monocytes at 0.6 mg/kg, iv using compound labelled with cyanine-5 measured after 24 hrs by flow cytometry; assay type: ADME, organism-based, Monocyte; settings: in vivo
[17] = Drug distribution in BALB/c mouse liver at […], ip using compound labelled with cyanine-5 measured after 24 hrs by fluorescence based assay; assay type: ADME, organism-based; settings: in vivo, dose 2.4 mg/kg
[18] = Drug distribution in BALB/c mouse kidney at […], ip using compound labelled with cyanine-5 measured after 24 hrs by fluorescence based assay; assay type: ADME, organism-based; settings: in vivo, dose 2.4 mg/kg
[19] = Drug distribution in BALB/c mouse spleen at […], ip using compound labelled with cyanine-5 measured after 24 hrs by fluorescence based assay; assay type: ADME, organism-based; settings: in vivo, dose 2.4 mg/kg
[20] = Drug distribution in BALB/c mouse lung at […], ip using compound labelled with cyanine-5 measured after 24 hrs by fluorescence based assay; assay type: ADME, organism-based; settings: dose 2.4 mg/kg, read-out: Drug uptake
[21] = Drug distribution in BALB/c mouse heart at […], ip using compound labelled with cyanine-5 measured after 24 hrs by fluorescence based assay; assay type: ADME, organism-based; settings: dose 2.4 mg/kg, read-out: Drug uptake
[22] = Drug distribution in BALB/c mouse lymph nodes at […], ip using compound labelled with cyanine-5 measured after 24 hrs by fluorescence based assay; assay type: ADME, organism-based, Lymph node; settings: dose 2.4 mg/kg, read-out: Drug uptake
[23] = Drug distribution in BALB/c mouse plasma at […], ip using compound labelled with cyanine-5 measured after 24 hrs by fluorescence based assay; assay type: ADME, organism-based; settings: in vivo, dose 2.4 mg/kg
[24] = Drug distribution in BALB/c mouse neutrophils at […], ip using compound labelled with cyanine-5 measured after 24 hrs by flow cytometry; assay type: ADME, organism-based, Neutrophil; settings: in vivo, dose 2.4 mg/kg
[25] = Drug distribution in BALB/c mouse monocytes at […], ip using compound labelled with cyanine-5 measured after 24 hrs by flow cytometry; assay type: ADME, organism-based, Monocyte; settings: in vivo, dose 2.4 mg/kg
[26] = Drug distribution in BALB/c mouse Non-T and B lymphocytes at […], ip using compound labelled with cyanine-5 measured after 24 hrs by flow cytometry; assay type: ADME, organism-based, Lymphocyte; settings: in vivo, dose 2.4 mg/kg
[27] = Drug distribution in BALB/c mouse spleen at […], sc using compound labelled with cyanine-5 measured after 24 hrs by fluorescence based assay; assay type: ADME, organism-based; settings: in vivo, dose 2.4 mg/kg
[28] = Drug distribution in BALB/c mouse lung at […], sc using compound labelled with cyanine-5 measured after 24 hrs by fluorescence based assay; assay type: ADME, organism-based; settings: dose 2.4 mg/kg, read-out: Drug uptake
[29] = Drug distribution in BALB/c mouse plasma at […], sc using compound labelled with cyanine-5 measured after 24 hrs by fluorescence based assay; assay type: ADME, organism-based; settings: in vivo, dose 2.4 mg/kg
[30] = Drug distribution in BALB/c mouse neutrophils at […], sc using compound labelled with cyanine-5 measured after 24 hrs by flow cytometry; assay type: ADME, organism-based, Neutrophil; settings: in vivo, dose 2.4 mg/kg
[31] = tested on: Mus musculus; assay: Anti-inflammatory activity in BALB/c mouse model of LPS-induced ALI assessed as reduction in LPS-induced lung wet-to-dry ratios at 3 mg/kg dosed via intranasal instillation pre-treated 2 hrs before LPS stimulation for 6 hrs and measured at 24 hrs; assay type: functional, organism-based
[32] = tested on: Mus musculus; assay: Anti-inflammatory activity in BALB/c mouse model of LPS-induced ALI assessed as reduction in LPS-induced BALF protein levels at 3 mg/kg dosed via intranasal instillation pre-treated 2 hrs before LPS stimulation for 6 hrs and measured at 24 hrs; assay type: functional, organism-based
[33] = tested on: Mus musculus; assay: Anti-inflammatory activity in BALB/c mouse model of LPS-induced ALI assessed as reduction in LPS-induced IL6 in BALF at 3 mg/kg dosed via intranasal instillation pre-treated 2 hrs before LPS stimulation for 6 hrs and measured at 24 hrs; assay type: functional, organism-based
[34] = tested on: Mus musculus; assay: Anti-inflammatory activity in BALB/c mouse model of LPS-induced ALI assessed as reduction in LPS-induced TNFalpha in BALF at 3 mg/kg dosed via intranasal instillation pre-treated 2 hrs before LPS stimulation for 6 hrs and measured at 24 hrs; assay type: functional, organism-based
[35] = tested on: Mus musculus; assay: Anti-inflammatory activity in BALB/c mouse model of LPS-induced ALI assessed as reduction in LPS-induced lung wet-to-dry ratios at 3 mg/kg dosed via intranasal instillation pre-treated 2 hrs before LPS stimulation for 6 hrs; assay type: functional, organism-based; settings: time 8.0 hrs
[36] = tested on: Mus musculus; assay: Anti-inflammatory activity in BALB/c mouse model of LPS-induced ALI assessed as reduction in LPS-induced IL6 level in BALF at 0.3 to 3 mg/kg dosed via intranasal instillation pre-treated 2 hrs before LPS stimulation for 6 hrs; assay type: functional
[37] = tested on: Mus musculus; assay: Anti-inflammatory activity in BALB/c mouse model of LPS-induced ALI assessed as reduction in LPS-induced TNFalpha in lung at 5 mg/kg, iv pre-treated 4 hrs before LPS stimulation for 16 hrs; assay type: functional; settings: time 20 hrs

inhibition [3]: inactive
Drug uptake [5]: Tde
Drug degradation [6]: Tde
metabolised at 1 h, 100 µM [7]: ≤ 25%
concentration [8]: < 5 nM
concentration at 8 h [9]: 13.5 nM
concentration at 8 h [10]: 15 nM
Drug uptake [11]: Not Active
Drug metabolism [12]: Metabolite_Detected
Drug metabolism [13]: Metabolite_Detected
Drug uptake [14]: Not Active
Drug uptake [15]: Not Active
Drug uptake [16]: Active
Drug uptake [17]: Active
Drug uptake [18]: Active
Drug uptake [19]: Active
concentration at 24 h [20]: > 50 nM
concentration at 24 h [21]: > 50 nM
concentration at 24 h [22]: > 50 nM
Drug uptake [23]: Not Active
Drug uptake [24]: Active
Drug uptake [25]: Active
Drug uptake [26]: Active
Drug uptake [27]: Active
concentration at 24 h [28]: > 50 nM
Drug uptake [29]: Not Active
Drug uptake [30]: Active
Compound: CC[C@H](C)[C@H](NC(=O)[C@@H](NC(=O)c1ccnc(Cl)c1Cl)C(C)(C)C)C(=O)N[C@H](C(=O)N[C@H](C(=O)N[C@H](C(=O)N[C@@H](CCC(N)=O)C(=O)N[C@@H](Cc1c[nH]cn1)C(=O)N[C@H](CC(C)C)C(=O)N[C@@H](CO)C(=O)NCCOCCOCC(=O)N[C@@H](CCCCNC(=O)CC[C@@H]1NC(=O)[C@@H](CCCNC(=N)N)NC(=O)[C@H](CCCNC(=N)N)NC(=O)[C@@H](CCCNC(=N)N)NC(=O)[C@H](CCCNC(=N)N)NC(=O)[C@H](Cc2ccc3ccccc3c2)NC(=O)[C@@H](Cc2ccccc2)NC1=O)C(N)=O)[C@@H](C)O)[C@@H](C)CC)C(C)(C)O (I: X1-[Tle]I[Val(3-OH)]ITQH[dL]S[AEEA]K-NH2 / II: cyclo([2Nal]R[dR]R[dR]E[dF]); amide I:11-II:6)
Activity [1]: Non-Toxic
inhibition [2]: Dose-dependent effect
Stability [4]: Stable
Activity [31]: inactive
Activity [32]: inactive
Activity [33]: inactive
Activity [34]: inactive
Activity [35]: Active
Activity ([36]; dose mg/kg 0.3-3, time 8.0 hrs): Dose-dependent effect
minimal effective dose ([36]; dose mg/kg 0.3-3, time 8 hrs, read-out: MED): 1 mg/kg
inhibition in vivo at 5 mg/kg [37]: 100%
